Data on 4 molecules can be found in ChEMBL document CHEMBL1125223, “Synthesis and antibacterial activities of C-21 functionalized derivatives of (9R)-9-amino-9-deoxoerythromycins A and B” (1991).

Common to all, as to type: functional
One experiment concerns Enterococcus faecium. Briefly: Concentration required to inhibit Enterococcus faecium ATCC 8043 stain by standard agar dilution method.
Experiment [1] concerns Escherichia coli. Briefly: Concentration required to inhibit Escherichia coli JUHL stain by standard agar dilution method. For orientation: Agar dilution tests growth on a series of plates holding different concentrations.
For experiment [2], the system named is Micrococcus luteus. Briefly: Concentration required to inhibit Micrococcus luteus ATCC 9341 stain by standard agar dilution method.
Experiment [3] concerns Staphylococcus aureus. The experiment can be described thus: Concentration required to inhibit CMX553 Staphylococcus aureus CMX553 stain by standard agar dilution method.
Experiment [4] has as its system Pseudomonas aeruginosa. The experiment can be described thus: Concentration required to inhibit Pseudomonas aeruginosa K799/WT stain by standard agar dilution method.
Experiment [5] has as its system Escherichia coli. The experiment can be described thus: Concentration required to inhibit Escherichia coli KNK 437 stain by standard agar dilution method.
In experiment [6] the test system is Escherichia coli. The experiment can be described thus: Concentration required to inhibit Escherichia coli H 560 stain by standard agar dilution method.
For another experiment, the system named is Streptococcus agalactiae. The experiment can be described thus: Concentration required to inhibit Streptococcus agalactiae CMX508 stain by standard agar dilution method.
Experiment [7] deals with Staphylococcus aureus. Briefly: Concentration required to inhibit 45 stain Staphylococcus aureus 45 by standard agar dilution method.
Experiment [8] has as its system Staphylococcus epidermidis. The experiment can be described thus: Concentration required to inhibit Staphylococcus epidermis 3519 stain by standard agar dilution method.
Experiment [9] has as its system Streptococcus pyogenes. The experiment can be described thus: Concentration required to inhibit Streptococcus pyogenes 930CONST stain by standard agar dilution method.
The test system of experiment [10] is Acinetobacter calcoaceticus. Briefly: Concentration required to inhibit Acinetobacter calcoaceticus CMX669 stain by standard agar dilution method.
A further experiment deals with Streptococcus equinus. Briefly: Concentration required to inhibit Streptococcus bovis A5169 stain by standard agar dilution method.
The test system of experiment [11] is Escherichia coli. Briefly: Concentration required to inhibit Escherichia coli SS stain by standard agar dilution method.
In another experiment the test system is Klebsiella aerogenes. Briefly: Concentration required to inhibit Enterobacter aerogenes ATCC 13048 stain by standard agar dilution method.
For experiment [12], the system named is Pseudomonas aeruginosa. Briefly: Concentration required to inhibit Pseudomonas aeruginosa K799/61 stain by standard agar dilution method.
The subject of another experiment is Burkholderia cepacia. Briefly: Concentration required to inhibit Pseudomonas cepacia 2961 stain by standard agar dilution method.
In another experiment the test system is Klebsiella pneumoniae. The experiment can be described thus: Concentration required to inhibit Klebsiella pneumoniae ATCC 8045 stain by standard agar dilution method.
In experiment [13] the test system is Streptococcus pyogenes. The experiment can be described thus: Concentration required to inhibit Streptococcus pyogenes EES61 stain by standard agar dilution method.
Experiment [14] concerns Micrococcus luteus. The experiment can be described thus: Concentration required to inhibit Micrococcus luteus ATCC 4698 stain by standard agar dilution method.
Experiment [15] deals with Escherichia coli. Briefly: Concentration required to inhibit Escherichia coli DC-2 stain by standard agar dilution method.
For experiment [16], the system named is Streptococcus pyogenes. The experiment can be described thus: Concentration required to inhibit Streptococcus pyogenes 2548 INDUC stain by standard agar dilution method.
The subject of experiment [17] is Staphylococcus aureus. The experiment can be described thus: Concentration required to inhibit Staphylococcus aureus ATCC 6538P stain by standard agar dilution method.

Converted amounts (≈) assume the structure as drawn.

As a reminder, the MIC is the smallest concentration in the dilution series that meets the test's criterion for growth inhibition.

On to `CC[C@H]1OC(=O)[C@H](C)[C@@H](O[C@H]2C[C@@](C)(OC)[C@@H](O)[C@H](C)O2)[C@H](C)[C@@H](O[C@@H]2O[C@H](C)C[C@H](N(C)C)[C@H]2O)[C@@](C)(O)C[C@@H](C)[C@@H](N(C)C)[C@H](C)[C@@H](O)[C@]1(C)O`, for which the MIC is 0.2 µg/mL (≈ 0.262 µM) in the experiment on Enterococcus faecium; 50 µg/mL (≈ 65.5 µM) with Escherichia coli [1]; 0.1 µg/mL (≈ 0.131 µM) with Micrococcus luteus [2]; 0.78 µg/mL (≈ 1.02 µM) in the experiment with Staphylococcus aureus [3]; greater than 100 µg/mL in the experiment with Pseudomonas aeruginosa [4]; 50 µg/mL (≈ 65.5 µM) in the experiment on Escherichia coli [5]. In addition, the MIC against Escherichia coli [6] was 12.5 µg/mL (≈ 16.4 µM); in the experiment on Streptococcus agalactiae, 0.1 µg/mL (≈ 0.131 µM); against Staphylococcus aureus [7], 0.78 µg/mL (≈ 1.02 µM); in [8] it was 0.39 µg/mL (≈ 0.511 µM); in the experiment with Streptococcus pyogenes [9], greater than 100 µg/mL; in [10], 12.5 µg/mL (≈ 16.4 µM). In addition, the MIC with Streptococcus equinus was 0.1 µg/mL (≈ 0.131 µM); against Escherichia coli [11] it was 0.1 µg/mL (≈ 0.131 µM); against Klebsiella aerogenes it was 50 µg/mL (≈ 65.5 µM); against Pseudomonas aeruginosa [12] it was 12.5 µg/mL (≈ 16.4 µM); against Burkholderia cepacia it was greater than 100 µg/mL; with Klebsiella pneumoniae it was 25 µg/mL (≈ 32.8 µM). For the same molecule, the MIC came to 0.05 µg/mL (≈ 0.0655 µM) against Streptococcus pyogenes [13]; 0.1 µg/mL (≈ 0.131 µM) against Micrococcus luteus [14]; 25 µg/mL (≈ 32.8 µM) against Escherichia coli [15]; 100 µg/mL (≈ 131 µM) in the experiment with Streptococcus pyogenes [16]; 0.39 µg/mL (≈ 0.511 µM) against Staphylococcus aureus [17].

`CC[C@H]1OC(=O)[C@H](C)[C@@H](O[C@H]2C[C@@](C)(OC)[C@@H](O)[C@H](C)O2)[C@H](C)[C@@H](O[C@@H]2O[C@H](C)C[C@H](N(C)C)[C@H]2O)[C@@](C)(O)C[C@@H](C)[C@@H](N(C)C)[C@H](C)[C@@H](O)[C@@]1(O)CO`: the MIC with Enterococcus faecium was 12.5 µg/mL (≈ 16 µM); in the experiment with Escherichia coli [1], greater than 100 µg/mL; against Micrococcus luteus [2] it was 6.2 µg/mL (≈ 7.96 µM); with Staphylococcus aureus [3], 25 µg/mL (≈ 32.1 µM); in the experiment with Pseudomonas aeruginosa [4] it was greater than 100 µg/mL; against Escherichia coli [5] it was greater than 100 µg/mL. Also, the MIC with Escherichia coli [6] was 25 µg/mL (≈ 32.1 µM); in the experiment on Streptococcus agalactiae, 3.1 µg/mL (≈ 3.98 µM); in the experiment with Staphylococcus aureus [7], 25 µg/mL (≈ 32.1 µM); in experiment [8] it was 25 µg/mL (≈ 32.1 µM); in the experiment with Streptococcus pyogenes [9] it was greater than 100 µg/mL; in experiment [10] it was greater than 100 µg/mL. For the same molecule, the MIC against Streptococcus equinus was 3.1 µg/mL (≈ 3.98 µM); in the experiment on Escherichia coli [11] it was 1.56 µg/mL (≈ 2 µM); in the experiment with Klebsiella aerogenes, greater than 100 µg/mL; against Pseudomonas aeruginosa [12], 50 µg/mL (≈ 64.2 µM); with Burkholderia cepacia, greater than 100 µg/mL; with Klebsiella pneumoniae, greater than 100 µg/mL. In addition, the MIC came to 1.56 µg/mL (≈ 2 µM) in the experiment on Streptococcus pyogenes [13]; 3.1 µg/mL (≈ 3.98 µM) in the experiment with Micrococcus luteus [14]; 50 µg/mL (≈ 64.2 µM) in the experiment on Escherichia coli [15]; 100 µg/mL (≈ 128 µM) against Streptococcus pyogenes [16]; 25 µg/mL (≈ 32.1 µM) in the experiment on Staphylococcus aureus [17].

Regarding `CC[C@H]1OC(=O)[C@H](C)[C@@H](O[C@H]2C[C@@](C)(OC)[C@@H](O)[C@H](C)O2)[C@H](C)[C@@H](O[C@H]2O[C@H](C)C[C@H](N(C)C)[C@H]2O)[C@@](C)(O)C[C@@H](C)[C@@H](N(C)C)[C@H](C)[C@@H](O)[C@@]12CO2`, the MIC in the experiment with Enterococcus faecium was 0.02 µg/mL (≈ 0.0263 µM); with Escherichia coli [1], 100 µg/mL (≈ 131 µM); in the experiment on Micrococcus luteus [2], 0.1 µg/mL (≈ 0.131 µM); in the experiment with Staphylococcus aureus [3], 0.78 µg/mL (≈ 1.02 µM); in the experiment with Pseudomonas aeruginosa [4], greater than 100 µg/mL; in the experiment on Escherichia coli [5], 100 µg/mL (≈ 131 µM). In addition, the MIC is 25 µg/mL (≈ 32.9 µM) in the experiment on Escherichia coli [6]; 0.05 µg/mL (≈ 0.0657 µM) in the experiment on Streptococcus agalactiae; 0.78 µg/mL (≈ 1.02 µM) in the experiment with Staphylococcus aureus [7]; 0.39 µg/mL (≈ 0.512 µM) in experiment [8]; greater than 100 µg/mL in the experiment with Streptococcus pyogenes [9]; 12.5 µg/mL (≈ 16.4 µM) in [10]. Moreover, the MIC with Streptococcus equinus was 0.02 µg/mL (≈ 0.0263 µM); in the experiment on Escherichia coli [11], 0.39 µg/mL (≈ 0.512 µM); in the experiment on Klebsiella aerogenes, greater than 100 µg/mL; with Pseudomonas aeruginosa [12], 12.5 µg/mL (≈ 16.4 µM); in the experiment on Burkholderia cepacia, greater than 100 µg/mL; with Klebsiella pneumoniae, 100 µg/mL (≈ 131 µM). Moreover, the MIC with Streptococcus pyogenes [13] turned out to be 0.05 µg/mL (≈ 0.0657 µM); with Micrococcus luteus [14], 0.1 µg/mL (≈ 0.131 µM); against Escherichia coli [15], 50 µg/mL (≈ 65.7 µM); against Streptococcus pyogenes [16], 6.2 µg/mL (≈ 8.15 µM); in the experiment on Staphylococcus aureus [17] it was 0.78 µg/mL (≈ 1.02 µM).

As to `CC[C@H]1OC(=O)[C@H](C)[C@@H](O[C@H]2C[C@@](C)(OC)[C@@H](O)[C@H](C)O2)[C@H](C)[C@@H](O[C@@H]2O[C@H](C)C[C@H](N(C)C)[C@H]2O)[C@@](C)(O)C[C@@H](C)[C@@H](N(C)C)[C@H](C)[C@@H](O)[C@H]1CO`, the MIC in the experiment on Enterococcus faecium was 1.56 µg/mL (≈ 2.04 µM); against Escherichia coli [1], greater than 100 µg/mL; with Micrococcus luteus [2] it was 0.78 µg/mL (≈ 1.02 µM); in the experiment with Staphylococcus aureus [3] it was 6.2 µg/mL (≈ 8.13 µM); in the experiment with Pseudomonas aeruginosa [4] it was 50 µg/mL (≈ 65.5 µM); against Escherichia coli [5], 100 µg/mL (≈ 131 µM). Also, the MIC against Escherichia coli [6] is 25 µg/mL (≈ 32.8 µM); in the experiment with Streptococcus agalactiae it was 0.78 µg/mL (≈ 1.02 µM); with Staphylococcus aureus [7], 6.2 µg/mL (≈ 8.13 µM); in [8] it was 6.2 µg/mL (≈ 8.13 µM); in the experiment on Streptococcus pyogenes [9], greater than 100 µg/mL; in [10] it was 3.1 µg/mL (≈ 4.06 µM). In addition, the MIC is 0.78 µg/mL (≈ 1.02 µM) with Streptococcus equinus; 0.39 µg/mL (≈ 0.511 µM) against Escherichia coli [11]; 100 µg/mL (≈ 131 µM) against Klebsiella aerogenes; 1.56 µg/mL (≈ 2.04 µM) against Pseudomonas aeruginosa [12]; 100 µg/mL (≈ 131 µM) against Burkholderia cepacia; 50 µg/mL (≈ 65.5 µM) against Klebsiella pneumoniae. Further, the MIC in the experiment on Streptococcus pyogenes [13] turned out to be 0.39 µg/mL (≈ 0.511 µM); in the experiment with Micrococcus luteus [14] it was 0.78 µg/mL (≈ 1.02 µM); with Escherichia coli [15], 50 µg/mL (≈ 65.5 µM); against Streptococcus pyogenes [16], 50 µg/mL (≈ 65.5 µM); against Staphylococcus aureus [17] it was 6.2 µg/mL (≈ 8.13 µM).
